Measured values taken from US6201006A, “Aromatic amidine derivatives useful as selective thrombin inhibitors” (C & C Research Laboratories, priority 1996, dated 2001).
pIC50: −log10 of the molar value.

What was measured:
human thrombin = biological target: T1, human thrombin (Homo sapiens, UniProt P00734); assay: Inhibitory activity for thrombin (chromogenic substrate hydrolysis, 405 nm); assay type: biochemical; settings: for Selectivity (trypsin/thrombin): IC50 for trypsin divided by IC50 for thrombin; for pIC50: human thrombin, 20 min, pH 8.0, N-benzoyl-Phe-Val-Arg-p-nitroanilide
T1 construct: purchased Sigma T-6759
Description: 20 μl of each compound of the present invention was dissolved in 50% methanol in various concentrations and then added to each well of a microplate, to each of which 160 μl of the reaction medium containing 125 mM NaCl, 50 mM Tris-HCl (pH 8.0) and 2 mM synthetic substrate (N-benzoyl-Phe-Val-Arg-p-nitroanilide, Sigma B-7632) were added. 20 μl of human thrombin solution (5 units/ml, Sigma T-6759, manufactured by Sigma Co.) containing 0.1% bovine serum albumin was added to each well to initiate the enzymatic reaction. After 20 minutes, the hydrolysis of substrate was determined by measuring the absorbance at 405 nm. […] The selectivity index was calculated by dividing the IC50 value for trypsin by the IC50 value for thrombin. The thrombin inhibitory activity and the trypsin inhibitory activity for the compound of the present invention are shown in the following Table 2.

[1] = system: thrombin time (TT) in rat plasma; assay: Thrombin time (TT) in rat plasma after oral administration; assay type: in vivo, SD male rats; settings: TT after / TT before administration
Description: SD male rats weighing 220±20 g which had fasted overnight were used as experimental animals. Blood taken from the hearts of the experimental animals just before administration of the test compound and at 30, 60, 120 and 240 minutes after oral administration of the test compound was mixed with 0.108M sodium citrate in the ratio of 9:1. The mixtures thereby obtained were centrifuged at 15,000 rpm for 5 minutes at 4° C. to separate the plasma, which was stored at -20° C. until the TT was measured by means of the method described below.
200 μl of Owren's buffer was added to 50 μl of the plasma and 100 μl of the diluted plasma thereby obtained was injected into the vial of a coagulometer and then incubated for 2 minutes at 37° C. To each vial was added 100 μl of thrombin at a concentration of 20 U/ml, which had prewarmed at 37° C., to measure the time (TT) until clotting occurred. The ratio of the TT in rat plasma after administration of the test compound to the TT in rat plasma before administration of the test compound was calculated.

trypsin = assay: Inhibitory activity for trypsin; assay type: biochemical

Question: Which “Selectivity (trypsin/thrombin)” value (human thrombin) does the source give for `CCOC(=O)CN1CCC[C@@H]1C(=O)N1CCC[C@H]1CCc1cc2ccc(C(=N)N)cc2n1CC` [Compound 86, ethyl 2-[(R)-2-[[(S)-2-[2-(6-amidino-1-ethylindol-2-yl)ethyl]pyrrolidinyl]carbonyl]pyrrolidinyl]acetate] here?
Answer: 25.0

Question: What about the pIC50 (human thrombin) of the same compound?
Answer: 7.57

Question: And the “Plasma TT ratio after administration to rat” value (shortened to “Plasma TT ratio”) ([1]; 30 mg/kg oral)?
Answer: 1.49

Question: And the “Plasma TT ratio” value ([1]; 50 mg/kg oral)?
Answer: 4.51

Question: And the “Plasma TT ratio” value ([1]; 100 mg/kg oral)?
Answer: 5.19

Question: Which results are given for `CCn1c(CCC2CCCN2C(=O)C2CCCN2C(CCO)C(=O)O)cc2ccc(C(=N)N)cc21` [Compound 118, 2-[(R)-2-[[(S)-2-[2-(6-amidino-1-ethylindol-2-yl)ethyl]pyrrolidinyl]carbonyl]pyrrolidinyl]-4-hydroxy-butanoic acid]?
Answer: Selectivity (trypsin/thrombin) (human thrombin): 14.5; pIC50 (human thrombin): 7.91; Plasma TT ratio after administration to rat ([1]; 50 mg/kg oral): 8.80

Question: With `CCOC(=O)CCCN1CCC[C@@H]1C(=O)N1CCC[C@H]1CCc1cc2ccc(C(=N)N)cc2n1CC` [Compound 126, ethyl 4-[(R)-2-[[(S)-2-[2-(6-amidino-1-ethylindol-2-yl)ethyl]pyrrolidinyl]carbonyl]pyrrolidinyl]butanoate] as the compound, how does the pIC50 (human thrombin) read?
Answer: 7.39

Question: And the “Plasma TT ratio” value ([1]; 50 mg/kg oral)?
Answer: 5.40

Question: How did the pIC50 (human thrombin) turn out when `CCn1c(CC[C@@H]2CCCN2C(=O)[C@H]2CCCN2CCCC(=O)O)cc2ccc(C(=N)N)cc21` [Compound 127, 4-[(R)-2-[[(S)-2-[2-(6-amidino-1-ethylindol-2-yl)ethyl]pyrrolidinyl]carbonyl]pyrrolidinyl]butanoic acid] was run?
Answer: 7.66

Question: What about the “Plasma TT ratio” value ([1]; 50 mg/kg oral) of the same compound?
Answer: 8.00

Question: What does the source list for `CCn1c(CC[C@@H]2CCCN2C(=O)[C@H]2CCCN2C(=O)[C@@H](N)CC(N)=O)cc2ccc(C(=N)N)cc21` [Compound 148, 1-ethyl-2-[2-[(S)-1-[[(R)-1-((S)-2-amino-3-carbamoylpropanoyl)pyrrolidin-2-yl]carbonyl]pyrrolidin-2-yl]ethyl]indole-6-carboxamidine]?
Answer: Selectivity (trypsin/thrombin) (human thrombin): 19.2; pIC50 (human thrombin): 7.64; pIC50 (trypsin): 6.35

Question: With `CCn1c(CC[C@@H]2CCCN2C(=O)[C@H]2CCCN2C(=O)[C@@H](N)CC(=O)O)cc2ccc(C(=N)N)cc21` [Compound 149, 4-[(R)-2-[[(S)-2-[2-(6-amidino-1-ethylindol-2-yl)ethyl]pyrrolidinyl]carbonyl]pyrrolidinyl]-(S)-3-amino-4-oxobutanoic acid] as the compound, how does the pIC50 (human thrombin) read?
Answer: 7.98

Question: And the “Plasma TT ratio” value ([1]; 50 mg/kg oral)?
Answer: 9.24

Question: What does the source list for `CCn1c(CC[C@@H]2CCCN2C(=O)[C@H]2CCCN2C(=O)CCN)cc2ccc(C(=N)N)cc21` [Compound 155, 1-ethyl-2-[2-[(S)-1-[[(R)-1-(3-aminopropanoyl)pyrrolidin-2-yl]carbonyl]pyrrolidin-2-yl]ethyl]indole-6-carboxamidine]?
Answer: Selectivity (trypsin/thrombin) (human thrombin): 24.7; pIC50 (human thrombin): 7.94; pIC50 (trypsin): 6.54; Plasma TT ratio after administration to rat ([1]; 50 mg/kg oral): 3.93; Plasma TT ratio after administration to rat ([1]; 100 mg/kg oral): 7.36

Question: With `CCOC(=O)[C@@H](N)CC(=O)N1CCC[C@@H]1C(=O)N1CCC[C@H]1CCc1cc2ccc(C(=N)N)cc2n1CC` [Compound 159, ethyl 4-[(R)-2-[[(S)-2-[2-(6-amidino-1-ethylindol-2-yl)-ethyl]pyrrolidinyl]carbonyl]pyrrolidinyl]-(S)-2-amino-4-oxobutanoate] as the compound, how does the “Selectivity (trypsin/thrombin)” value (human thrombin) read?
Answer: 20.7

Question: And the pIC50 (human thrombin)?
Answer: 7.71

Question: What about the “Plasma TT ratio” value ([1]; 50 mg/kg oral) of the same compound?
Answer: 6.23

Question: Which results are given for `CCn1c(CC[C@@H]2CCCN2C(=O)[C@H]2CCCN2C(=O)C[C@H](N)C(N)=O)cc2ccc(C(=N)N)cc21` [Compound 160, 1-ethyl-2-[2-[(S)-1-[[(R)-1-((S)-3-amino-3-carbamoylpropanoyl)pyrrolidin-2-yl]carbonyl]pyrrolidin-2-yl]ethyl]indole-6-carboxamidine]?
Answer: Selectivity (trypsin/thrombin) (human thrombin): 25.0; pIC50 (human thrombin): 7.82; pIC50 (trypsin): 6.42; Plasma TT ratio after administration to rat ([1]; 50 mg/kg oral): 2.30

Question: Which “Selectivity (trypsin/thrombin)” value (human thrombin) does the source give for `CCn1c(CC[C@@H]2CCCN2C(=O)[C@H]2CCCN2C(=O)C[C@H](N)C(=O)O)cc2ccc(C(=N)N)cc21` [Compound 161, 4-[(R)-2-[[(S)-2-[2-(6-amidino-1-ethylindol-2-yl)ethyl]pyrrolidinyl]carbonyl]pyrrolidinyl]-(S)-2-amino-4-oxobutanoic acid] here?
Answer: 48.9

Question: What about the pIC50 (human thrombin) of the same compound?
Answer: 8.28

Question: And the “Plasma TT ratio” value ([1]; 50 mg/kg oral)?
Answer: 7.62

Question: What does the source list for `CCn1c(CCC2CCCN2C(=O)C2CCCN2C(=O)CC(NS(C)(=O)=O)C(N)=O)cc2ccc(C(=N)N)cc21` [Compound 162, 1-ethyl-2-[2-[(S)-1-[[1-[(R)-1-[3-carbamoyl-(S)-3-[(methanesulfonyl)amino]propanoyl]pyrrolidin-2-yl]carbonyl]pyrrolidin-2-yl]ethyl]indole-6-carboxamidine]?
Answer: Selectivity (trypsin/thrombin) (human thrombin): 45.0; pIC50 (human thrombin): 8.14; pIC50 (trypsin): 6.48

Question: `CCn1c(CC[C@@H]2CCCN2C(=O)[C@H]2CCCN2C(=O)CCCN)cc2ccc(C(=N)N)cc21` [Compound 166, 1-ethyl-2-[2-[(S)-1-[[(R)-1-(4-aminobutanoyl)pyrrolidin-2-yl]carbonyl]pyrrolidin-2-yl]ethyl]indole-6-carboxamidine] was tested. Which “Selectivity (trypsin/thrombin)” value (human thrombin) did it give?
Answer: 18.6

Question: What about the pIC50 (human thrombin) of the same compound?
Answer: 7.48

Question: And the pIC50 (trypsin)?
Answer: 6.21

Question: Which “Selectivity (trypsin/thrombin)” value (human thrombin) does the source give for `CCn1c(CC[C@@H]2CCCN2C(=O)[C@H]2CCCN2C(=O)C2CCCCN2)cc2ccc(C(=N)N)cc21` (stereo partly drawn) [Compound 167, 1-ethyl-2-[2-[(S)-1-[[(R)-1-[(2-piperidyl)carbonyl]pyrrolidin-2-yl]carbonyl]pyrrolidin-2-yl]ethyl]indole-6-carboxamidine] here?
Answer: 17.6

Question: And the pIC50 (human thrombin)?
Answer: 7.74

Question: What about the pIC50 (trypsin) of the same compound?
Answer: 6.49

Question: How did the “Selectivity (trypsin/thrombin)” value (human thrombin) turn out when `CC(=O)N1CCC[C@@H]1C(=O)N1CCC[C@H]1CCc1cc2ccc(C(=N)N)cc2n1C` [Compound 170, 1-methyl-2-[2-[(S)-1-[((R)-1-acetylpyrrolidin-2-yl)-carbonyl]pyrrolidin-2-yl]ethyl]indole-6-carboxamidine] was run?
Answer: 31.9

Question: And the pIC50 (human thrombin)?
Answer: 7.47

Question: What about the pIC50 (trypsin) of the same compound?
Answer: 5.97

Question: What does the source list for `CCn1c(CC[C@@H]2CCCN2C(=O)[C@H]2CCCN2C(=O)CCC(=O)O)cc2ccc(C(=N)N)cc21` [Compound 177]?
Answer: Selectivity (trypsin/thrombin) (human thrombin): 26.6; pIC50 (human thrombin): 7.73; pIC50 (trypsin): 6.30

Question: With `CCn1c(CC[C@@H]2CCCN2C(=O)[C@H]2CCCN2C(=O)CC(C)O)cc2ccc(C(=N)N)cc21` (stereo partly drawn) [Compound 180, 1-ethyl-2-[2-[(S)-1-[[(R)-1-(3-hydroxybutanoyl)pyrrolidin-2-yl]carbonyl]pyrrolidin-2-yl]-ethyl]indole-6-carboxamidine] as the compound, how does the “Selectivity (trypsin/thrombin)” value (human thrombin) read?
Answer: 31.8

Question: What about the pIC50 (human thrombin) of the same compound?
Answer: 7.96

Question: And the pIC50 (trypsin)?
Answer: 6.45

Question: For `C=CC(=O)N1CCC[C@@H]1C(=O)N1CCC[C@H]1CCc1cc2ccc(C(=N)N)cc2n1CC` [Compound 182, 1-ethyl-2-[2-[(S)-1-[((R)-1-prop-2-enoyl-pyrrolidin-2-yl)carbonyl]pyrrolidin-2-yl]ethyl]indole-6-carboxamidine], which “Selectivity (trypsin/thrombin)” value (human thrombin) is on record?
Answer: 30.0

Question: What about the pIC50 (human thrombin) of the same compound?
Answer: 8.00

Question: And the pIC50 (trypsin)?
Answer: 6.52

Question: For `CCn1c(CC[C@@H]2CCCN2C(=O)[C@H]2CCCN2S(C)(=O)=O)cc2ccc(C(=N)N)cc21` [Compound 184, 1-ethyl-2-[2-[(S)-1-[[(R)-1-(methanesulfonyl)pyrrolidin-2-yl]carbonyl]pyrrolidin-2-yl]ethyl]indole-6-carboxamidine], which “Selectivity (trypsin/thrombin)” value (human thrombin) is on record?
Answer: 57.9

Question: And the pIC50 (human thrombin)?
Answer: 8.02

Question: And the pIC50 (trypsin)?
Answer: 6.26

Question: For `CCOC(=O)CN1CCC[C@@H]1C(=O)N1CCC[C@H]1CCc1cc2ccc(C(=N)NC(=O)OCC)cc2n1CC` [Compound 267, ethyl 2-[(R)-2-[[(S)-2-[2-[1-ethyl-6-[(ethoxycarbonylamino)iminomethyl]indol-2-yl]ethyl]pyrrolidinyl]carbonyl]pyrrolidinyl]acetate], which “Plasma TT ratio” value ([1]; 50 mg/kg oral) is on record?
Answer: 4.48

Question: For `CCOC(=O)CN1CCC[C@@H]1C(=O)N1CCC[C@H]1CCc1cc2ccc(C(=N)NC(=O)OC(C)C)cc2n1CC` [Compound 270, ethyl 2-[(R)-2-[[(S)-2-[2-[1-ethyl-6-[imino[(methylethoxy)carbonylamino]methyl]indol-2-yl]ethyl]pyrrolidinyl]carbonyl]pyrrolidinyl]acetate], which “Plasma TT ratio” value ([1]; 30 mg/kg oral) is on record?
Answer: 1.46

Question: And the “Plasma TT ratio” value ([1]; 50 mg/kg oral)?
Answer: 4.30

Question: What does the source list for `CCOC(=O)CN1CCCC1C(=O)N1CCCC1CCc1cc2ccc(C(=N)NC(=O)OC(Cl)(Cl)Cl)cc2n1CC` [Compound 272, ethyl 2-[(R)-2-[[(S)-2-[2-[6-[[(trichloromethoxy)carbonylamino]iminomethyl]-1-ethylindol-2-yl]ethyl]pyrrolidinyl]carbonyl]pyrrolidinyl]acetate]?
Answer: Plasma TT ratio after administration to rat ([1]; 30 mg/kg oral): 1.76; Plasma TT ratio after administration to rat ([1]; 50 mg/kg oral): 2.84
